Data reported in patent US8809333B2, “Imidazole, pyrazole, and triazole derivatives useful as antibacterial agents” (Pfizer Inc., priority 2011, dated 2014).
Converted amounts (≈) assume the structure as drawn. Where two headings read alike, the source gives them in different places.

How the values were obtained:
[1] = molecular target: T1, Pseudomonas aeruginosa LpxC enzyme (Pseudomonas aeruginosa, UniProt P47205); test: IC50 assay, LpxC enzyme from P. aeruginosa (BioTrove RapidFire mass spectrometry); assay type: biochemical
T1 construct: made in house; host or cells: E. coli
T1 sequence (P47205 1-303): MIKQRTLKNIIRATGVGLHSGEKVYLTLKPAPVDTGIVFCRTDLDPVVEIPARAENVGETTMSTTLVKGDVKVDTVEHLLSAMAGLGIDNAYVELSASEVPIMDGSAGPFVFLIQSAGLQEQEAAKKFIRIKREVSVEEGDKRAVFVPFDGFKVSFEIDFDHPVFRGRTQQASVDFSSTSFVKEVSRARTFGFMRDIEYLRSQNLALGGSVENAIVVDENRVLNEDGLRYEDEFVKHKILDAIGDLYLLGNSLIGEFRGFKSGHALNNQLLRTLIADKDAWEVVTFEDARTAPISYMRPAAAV
How it was run: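 P. aeruginosa LpxC reaction run 1 hour, stopped with 1 N HCl, and substrate-to-product conversion quantified by RapidFire mass spectrometry. IC50 calculated from percent conversion using a no-enzyme control.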

[2] = test system: Acinetobacter baumannii/haemolyticus: Multidrug-resistant clinical isolate (AB-3167); test: MIC determination (CLSI), AB-3167; assay type: cell-based; conditions: Acinetobacter baumannii/haemolyticus multidrug-resistant clinical isolate; overnight incubation; lower of duplicate values; read-out: AB-3167 (MIC)
How it was run: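 Broth dilution MIC per CLSI M7-A8, 2-fold concentration steps, overnight incubation, visual read of lowest concentration inhibiting growth versus drug-free control. Tested in duplicate; lower value reported if within 2-fold, otherwise repeated; QC organisms and reference drugs required within range.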

[3] = test system: Escherichia coli EC-1: VOGEL, mouse virulent; test: MIC determination (CLSI), EC-1; assay type: cell-based; conditions: Escherichia coli, read-out: EC-1 (MIC)
How it was run: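 Broth dilution MIC per CLSI M7-A8, with 2-fold compound dilutions incubated overnight with a standard inoculum. MIC is the lowest concentration visibly inhibiting growth versus drug-free control; tested in duplicate, reporting the lower value when within 2-fold, with QC organisms and reference compounds required in range.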

[4] = test system: Klebsiella pneumoniae: Ciprofloxacin-resistant isolate, expresses ESBL, clinical isolate (KP-3700); test: MIC determination (CLSI), KP-3700; assay type: cell-based; conditions: overnight incubation, lower of duplicate values
How it was run: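 Broth dilution MIC per CLSI M7-A8 against the ciprofloxacin-resistant, ESBL-expressing clinical isolate, 2-fold concentration steps, overnight incubation, visual read of lowest growth-inhibiting concentration. Tested in duplicate; lower value reported when within 2-fold; control organisms and reference compounds required within range.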

[5] = test system: Pseudomonas aeruginosa UI-18: Wild-type (PA-7); test: MIC determination (CLSI), PA-7; assay type: cell-based; conditions: Pseudomonas aeruginosa UI-18 wild-type; overnight incubation; lower of duplicate values; read-out: PA-7 (MIC)
How it was run: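 Broth dilution MIC per CLSI M7-A8, using 2-fold compound dilutions incubated overnight; MIC is the lowest concentration with no visible growth versus the drug-free control. Run in duplicate, lower value reported when within 2-fold. Control organisms and reference compounds were included for QC.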

[6] = P. aeruginosa LpxC enzyme 0.1 nM, 25° C., 1 hour, pH 8.0, read-out: PA: IC50

| Compound | IC50 [1, 6] [nM] | MIC [2] [µg/mL] | MIC [3] [µg/mL] | KP-3700 (MIC) [4] [µg/mL] | MIC [5] [µg/mL] | IC50 [1] [nM] |
| --- | --- | --- | --- | --- | --- | --- |
| CC(CCn1cc(-c2cccc(O)c2)cn1)(C(=O)NO)S(C)(=O)=O (centres unmarked) [Example 44, N-hydroxy-4-[4-(3-hydroxyphenyl)-1H-pyrazol-1-yl]-2-methyl-2-(methylsulfonyl)butanamide] | 21.1 | > 64 | > 64 | >64.0 | > 64 |  |
| C[C@@](CCn1cc(C#N)cn1)(C(=O)NO)S(C)(=O)=O [Example 7, (2R)-4-(4-cyano-1H-pyrazol-1-yl)-N-hydroxy-2-methyl-2-(methylsulfonyl)butanamide] | 620 | > 64 | > 64 | >64.0 | > 64 |  |
| CC(CCn1cc(-c2ccc3c(c2)CCO3)cn1)(C(=O)NO)S(C)(=O)=O (centres unmarked) [Example 58, 4-[4-(2,3-dihydro-1-benzofuran-5-yl)-1H-pyrazol-1-yl]-N-hydroxy-2-methyl-2-(methylsulfonyl)butanamide] | 1.17 | > 64 | > 64 | >64.0 | 4 (≈ 10.5 µM) |  |
| CC(CCn1cc(-c2ccccc2)cn1)(C(=O)NO)S(C)(=O)=O (centres unmarked) [Example 40, N-hydroxy-2-methyl-2-(methylsulfonyl)-4-(4-phenyl-1H-pyrazol-1-yl)butanamide] |  | > 64 | 32 (≈ 94.8 µM) | >64.0 | 2 (≈ 5.93 µM) | 4.63 |
| C[C@@](CCn1cc(-c2ccc(Cl)c(F)c2)nn1)(C(=O)NO)S(C)(=O)=O [Example 23, (2R)-4-[4-(4-chloro-3-fluorophenyl)-1H-1,2,3-triazol-1-yl]-N-hydroxy-2-methyl-2-(methylsulfonyl)butanamide] |  | > 64 | 8 (≈ 20.5 µM) | 64 | 2 (≈ 5.12 µM) | 0.912 |
| CC(CCn1cc(-c2ccc(C#N)cc2)cn1)(C(=O)NO)S(C)(=O)=O (centres unmarked) [Example 47, 4-[4-(4-cyanophenyl)-1H-pyrazol-1-yl]-N-hydroxy-2-methyl-2-(methylsulfonyl)butanamide] | 1.15 | > 64 | 64 (≈ 177 µM) | >64.0 | 4 (≈ 11 µM) |  |
| CC(CCn1cc(COc2cccc3ccccc23)nn1)(C(=O)NO)S(C)(=O)=O (centres unmarked) [Example 34, N-hydroxy-2-methyl-2-(methylsulfonyl)-4-{4-[(naphthalen-1-yloxy)methyl]-1H-1,2,3-triazol-1-yl}butanamide] | 26.3 | > 64 | > 64 | >64.0 | > 64 |  |
| CC(CCn1cc(-c2ccc(-c3ccno3)cc2)cn1)(C(=O)NO)S(C)(=O)=O (centres unmarked) [Example 73, N-hydroxy-2-methyl-2-(methylsulfonyl)-4-{4-[4-(1,2-oxazol-5-yl)phenyl]-1H-pyrazol-1-yl}butanamide] | 0.35 | > 64 | 4 (≈ 9.89 µM) | 16 | 2 (≈ 4.95 µM) |  |
| Cc1nn(CC[C@](C)(C(=O)NO)S(C)(=O)=O)cc1-c1ccccc1 [Example 4, (2R)—N-hydroxy-2-methyl-4-(3-methyl-4-phenyl-1H-pyrazol-1-yl)-2-(methylsulfonyl)butanamide] | 14.6 | > 64 | 8 (≈ 22.8 µM) | 32 | 8 (≈ 22.8 µM) |  |
| COc1cccc(-c2cnn(CCC(C)(C(=O)NO)S(C)(=O)=O)c2)c1 (centres unmarked) [Example 51, N-hydroxy-4-[4-(3-methoxyphenyl)-1H-pyrazol-1-yl]-2-methyl-2-(methylsulfonyl)butanamide] | 7.3 | > 64 | > 64 | >64.0 | 16 (≈ 43.5 µM) |  |
| Cc1ccc(C)c(OCc2cn(CCC(C)(C(=O)NO)S(C)(=O)=O)nn2)c1 (centres unmarked) [Example 39, 4-{4-[(2,5-dimethylphenoxy)methyl]-1H-1,2,3-triazol-1-yl}-N-hydroxy-2-methyl-2-(methylsulfonyl)butanamide] | 51.3 | > 64 | > 64 | >64.0 | > 64 |  |
| CC(CCn1cc(-c2ccc3c(c2)CCC3=O)cn1)(C(=O)NO)S(C)(=O)=O (centres unmarked) [Example 62, N-hydroxy-2-methyl-2-(methylsulfonyl)-4-[4-(1-oxo-2,3-dihydro-1H-inden-5-yl)-1H-pyrazol-1-yl]butanamide] | 0.754 | > 64 | > 64 | >64.0 | 16 (≈ 40.9 µM) |  |
| C[C@@](CCn1cc(-c2ccccc2)cn1)(C(=O)NO)S(C)(=O)=O [Example 6, (2R)—N-hydroxy-2-methyl-2-(methylsulfonyl)-4-(4-phenyl-1H-pyrazol-1-yl)butanamide] |  | > 64 | 16 (≈ 47.4 µM) | 64 | 1 (≈ 2.96 µM) | 1.61 |
